Source: patent publication US20040023987A1, “Sustained release compositions” (priority 2000, published 2004)

Experiment: Solubility in second solution of Japanese Pharmacopoeia (0.2 M phosphate buffer, pH approx. 6.8)
Assay type: physicochemical
Procedure: The term “solubility” used herein means concentration of drug in a supernatant which is obtained by centrifugal separation of unsolved agent, after shaking a mixture prepared by adding the agent to the second solution defined in Japanese Pharmacopoeia [0.2 M phosphate-buffer (pH approx. 6.8), for more than 30 minutes at room temperature (about 15 to about 25° C.) in a rate of more than 100 times per minutes using, for example, a Recipro shaker (model SR-I, Taiyo Scientific Industrial Co., Ltd.).

CONC(=O)Nc1ccc(-c2sc3c(c2CN(C)Cc2ccccc2)c(=O)n(-c2ccccc2)c(=O)n3Cc2c(F)cccc2F)cc1 [Reference example 7, 5-(N-Benzyl-N-methylaminomethyl)-1-(2,6-difluorobenzyl)-6-[4-(3-methoxyureido)phenyl]-3-phenylthieno[2,3-d]pyrimidine-2,4 (1H,3H)-dione]
water solubility (in words): water-insoluble or slightly water-soluble
